Experiments:
[1] = system: EGFP-PYL and NES-ABI in CHO cells; assay: Live cell confocal EGFP nuclear export; type: cell-based; conditions: 10 μM, 405 nm irradiation, followed 20 minutes
Procedure: (§1) To test the uncaging process in live cell experiments, EGFP nuclear export experiments were carried out by transfecting CHO cells with EGFP-PYL and NES-ABI constructs. The cells were then either treated with 10 μM ABA-DEACM and with or without 405 nm light irradiation under a confocal microscope, or with no drug but irradiated. The subcellular location of EGFP was followed for 20 minutes after irradiation. […] We also tested the use of ABA-DEACM in live cell imaging to induce cell morphology changes. We transfected CHO cells in a culture chamber with myr-ABI and EGFP-PYLTiam1 constructs.
Live cell confocal microscopy irradiation and imaging: EGFP fluorescence of CHO cells was detected with an LSM 510 Meta confocal mounted on an AxioObserver inverted microscope (Carl Zeiss AG, Oberkochen, Germany). […] To image, fluorescence was excited with the 488 nm line of an argon laser (30 mW) with laser power attenuated to 50%. […]
Image analysis of fluorescence intensity in nuclear export experiments: Generated images were analyzed for fluorescence intensity by using Slide Book v.6 software (Intelligent Imaging Innovations, Inc., Denver, Colo.). Equal sized regions of interest were analyzed from the cytoplasm and the nucleus to compare fluorescent intensity of EGFP in three cells for each condition from images taken every 20 seconds for a duration of 20 minutes.

[2] = system: myr-ABI and EGFP-PYL-Tiam1 in CHO cells; assay: Live cell imaging of cytoskeletal remodeling; type: cell-based; conditions: 405 nm irradiation
Procedure: as §1
Live cell confocal microscopy irradiation and imaging: EGFP fluorescence of CHO cells was detected with an LSM 510 Meta confocal mounted on an AxioObserver inverted microscope (Carl Zeiss AG, Oberkochen, Germany). ABA-DEACM was uncaged by using a 405 nm UV laser (25 mW) set to 25% power for approximately three seconds. To image, fluorescence was excited with the 488 nm line of an argon laser (30 mW) with laser power attenuated to 50%. EGFP emission was collected with a FITC filter. Live cells were plated in 8-well coverslip-bottom culture chambers in medium (200 μL) and maintained at 37° C. with an objective lens heater (Bioptechs Inc., Butler, Pa.). Culture medium was exchanged with OptiMEM (GIBCO, Life Technologies, Carlsbad, Calif.) with caged ABA or no drug prior to imaging. Images were acquired every 10 to 20 seconds in different experiments with a 63×5/1.2 NA water objective.

[3] = Reaction selectivity of ABA-HP versus different molecules (HPLC); type: physicochemical; conditions: four hours
Procedure: Reaction selectivity versus different molecules: 100 μM ABA-HP was incubated with 100 μM (1 eq) of different molecules in 50% HEPES/DMSO (pH 7.4) at 37° C. for 4 hours and detected by HPLC. H2S was generated by 100 μM Na2S solution in HEPES buffer, which can slowly release H2S. .OH and .OtBu were generated by reaction of Fe^2+ with H2O2 or tert-butyl hydroperoxide (TBHP), respectively. HPLC condition was the same as the stability and reactivity test of ABA-HP.

[4] = ABA-HP reactivity towards H2O2 (HPLC); type: physicochemical; conditions: 1 mM + H2O2 (5 eq), 50% HEPES/DMSO, 37° C.
Procedure: (§2) Chemical stability and reactivity of ABA-HP towards H2O2: ABA-HP chemical stability: 1 mM ABA-HP (in DMSO) was incubated in 50% HEPES/DMSO (10 mM HEPES, pH 7.4) for 24 hours at 37° C. HPLC results were detected at 0 minutes, 20 minutes, 40 minutes, 60 minutes, 80 minutes, 100 minutes, 120 minutes, 240 minutes, and 24 hours. ABA-HP reactivity towards H2O2: 1 mM ABA-HP was incubated with 5 mM (5 eq) H2O2 in 50% HEPES/DMSO (10 mM HEPES, pH 7.4) at 37° C. HPLC results were detected at 0 minutes, 20 minutes, 40 minutes, 80 minutes, 100 minutes, 120 minutes, and 240 minutes (FIGS. 1c, 4a and 4b). 100 mM H2O2 was diluted with 11 μL of 30% (10 M) stock H2O2 (VWR) and 989 μL of ddH2O. […] HPLC chromatograms were acquired using an ULTIMATE 3000 LC System (Thermo Fisher Scientific, Waltham, Mass.) with ACCLAIM 120 Å, C18, 3 μm analytical (4.6×100 mm) column (Thermo Fisher Scientific, Waltham, Mass.). Chromatographic conditions: eluent A: 0.1% v/v TFA in water; eluent B: 0.1% v/v TFA in acetonitrile. ABA in ethanol or ABA-HP in DMSO was eluted at a flow rate of 0.750 ml/min monitored at a wavelength of 260 nm. 0-12 min (linear): 95% A, 5% B to 5% A, 95% B; 12-15 min: 5% A, 95% B; 15-17 min (linear): 5% A, 95% B to 95% A, 5% B. Generation of ABA was quantified by the peak area of ABA out of the total peak area.

[5] = Chemical stability of ABA-HP in HEPES/DMSO (HPLC); type: physicochemical; conditions: 1 mM, 50% HEPES/DMSO pH 7.4, 37° C., 24 hours
Procedure: as §2

| SMILES | nuclear export of EGFP fusion proteins [1] | start of membrane ruffling after uncaging [2] [min] | time to formation of fillopodia and lemellopodia [2] [min] | time to formation of filopodia and lamellipodia [2] [min] | stability against other ROS, H2S, metal ions ([3]; 100 μM ABA-HP, molecules at 100 μM, 37° C.) | effect of Cu^+ and Cu^2+ ([3]; Cu^+ and Cu^2+ at 10 μM) | cleavage by Cu^+ and Cu^2+ ([3]; Cu^+ and Cu^2+ at 100 μM) | completion of transformation to ABA [4] | start of conversion back to ABA [4] | chemical stability in biological buffer [5] |
| --- | --- | --- | --- | --- | --- | --- | --- | --- | --- | --- |
| CCN(CC)c1ccc2c(COC(=O)/C=C(C)\C=C\[C@@]3(O)C(C)=CC(=O)CC3(C)C)cc(=O)oc2c1 [ABA-DEACM] | observed within a few minutes | 5 | ≤ 15 | ≤ 15 |  |  |  |  |  |  |
| CC1=CC(=O)CC(C)(C)[C@@]1(O)/C=C/C(C)=C\C(=O)OCc1ccc(B2OC(C)(C)C(C)(C)O2)cc1 [ABA-HP] |  |  |  |  | stable against all molecules tested at 100 μM | no effects | minimal amount of cleavage | completed in four hours | within minutes | stable in biological buffer at 37 °C throughout the 24-hour observation period |

From patent US10907219B2, “Compositions and methods for controlling cellular function” (STC.UNM, priority 2014, dated 2021)
